Assay results from ChEMBL document CHEMBL5649166, “RIP3 induces apoptosis independent of pronecrotic kinase activity” (Mol Cell, 2014).
Activity calls are given as the source filed them. The rule behind the calls is not given here.

Tests used:
3T3SA [1] = assay: Induction of apoptosis in mouse 3T3SA cells assessed as increase in caspase3/7 proteolytic activity incubated for 2.5 hrs; assay type: toxicity, cell-based
3T3SA [2] = assay: Induction of apoptosis in mouse 3T3SA cells incubated for 18 hrs in presence of Nec-1 by Cell Titer-Glo luminescent cell viability assay; assay type: toxicity, cell-based
L929 = assay: Inhibition of TLR-3 induced necroptosis in mouse L929 cells assessed as increase in cell viability at 1 uM incubated for 18 hrs in presence of poly(I:C) by Cell Titer-Glo luminescent cell viability assay; assay type: functional, cell-based
3T3SA [3] = assay: Induction of apoptosis in mouse 3T3SA cells transfected with RIP1 siRNA assessed as accumulation of cleaved caspase 3 incubated for 0.5 to 1.5 hrs by immunoblot analysis; assay type: toxicity, cell-based; details: time 0.5-1.5 hrs
[4] = target: Nuclear factor NF-kappa-B complex (Homo sapiens) (UniProt Q00653+P19838+Q04206); assay: Activation of NFkappaB (unknown origin) transfected in mouse 3T3SA cells incubated for 2.5 hrs; assay type: cell-based; details: filed as activator
3T3SA [5] = assay: Induction of apoptosis in mouse 3T3SA cells incubated for 18 hrs in presence of 3-MA by Cell Titer-Glo luminescent cell viability assay; assay type: toxicity, cell-based
3T3SA [6] = assay: Induction of apoptosis in RIP3shRNA transfected mouse 3T3SA cells co-transfected with shRNA-resistant RIP3 K51A mutant pre-tranfected for 16 hrs followed by compound addition and measured after 18 hrs in presence of zVAD by Cell Titer-Glo luminescent cell viability assay; assay type: toxicity, cell-based

Nuclear factor NF-kappa-B complex (Homo sapiens), sequence (P19838 whole entry, looked up): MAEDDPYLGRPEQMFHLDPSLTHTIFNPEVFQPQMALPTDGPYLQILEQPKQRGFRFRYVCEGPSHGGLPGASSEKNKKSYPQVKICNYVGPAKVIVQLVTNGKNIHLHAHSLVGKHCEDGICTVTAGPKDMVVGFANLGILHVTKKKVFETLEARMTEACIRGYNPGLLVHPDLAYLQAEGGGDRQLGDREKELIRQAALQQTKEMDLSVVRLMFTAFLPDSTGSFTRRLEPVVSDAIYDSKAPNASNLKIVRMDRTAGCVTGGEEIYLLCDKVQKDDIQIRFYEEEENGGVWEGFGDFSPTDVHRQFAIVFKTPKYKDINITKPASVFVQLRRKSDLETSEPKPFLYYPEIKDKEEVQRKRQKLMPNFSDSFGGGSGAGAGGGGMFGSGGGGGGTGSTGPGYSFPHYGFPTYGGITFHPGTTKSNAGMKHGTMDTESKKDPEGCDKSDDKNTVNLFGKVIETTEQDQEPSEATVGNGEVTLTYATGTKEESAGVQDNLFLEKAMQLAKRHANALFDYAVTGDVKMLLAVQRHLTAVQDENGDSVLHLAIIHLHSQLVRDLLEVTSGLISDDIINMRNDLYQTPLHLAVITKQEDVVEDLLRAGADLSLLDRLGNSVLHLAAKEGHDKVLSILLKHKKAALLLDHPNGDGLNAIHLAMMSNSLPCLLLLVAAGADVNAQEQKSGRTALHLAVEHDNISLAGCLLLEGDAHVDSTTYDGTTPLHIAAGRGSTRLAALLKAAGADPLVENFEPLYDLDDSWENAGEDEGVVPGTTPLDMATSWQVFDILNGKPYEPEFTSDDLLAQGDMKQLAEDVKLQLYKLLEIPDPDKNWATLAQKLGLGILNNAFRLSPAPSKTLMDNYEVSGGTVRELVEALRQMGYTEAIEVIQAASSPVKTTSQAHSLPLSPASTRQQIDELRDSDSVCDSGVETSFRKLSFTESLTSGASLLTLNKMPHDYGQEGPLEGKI
Nuclear factor NF-kappa-B complex (Homo sapiens), sequence (Q00653 whole entry, looked up): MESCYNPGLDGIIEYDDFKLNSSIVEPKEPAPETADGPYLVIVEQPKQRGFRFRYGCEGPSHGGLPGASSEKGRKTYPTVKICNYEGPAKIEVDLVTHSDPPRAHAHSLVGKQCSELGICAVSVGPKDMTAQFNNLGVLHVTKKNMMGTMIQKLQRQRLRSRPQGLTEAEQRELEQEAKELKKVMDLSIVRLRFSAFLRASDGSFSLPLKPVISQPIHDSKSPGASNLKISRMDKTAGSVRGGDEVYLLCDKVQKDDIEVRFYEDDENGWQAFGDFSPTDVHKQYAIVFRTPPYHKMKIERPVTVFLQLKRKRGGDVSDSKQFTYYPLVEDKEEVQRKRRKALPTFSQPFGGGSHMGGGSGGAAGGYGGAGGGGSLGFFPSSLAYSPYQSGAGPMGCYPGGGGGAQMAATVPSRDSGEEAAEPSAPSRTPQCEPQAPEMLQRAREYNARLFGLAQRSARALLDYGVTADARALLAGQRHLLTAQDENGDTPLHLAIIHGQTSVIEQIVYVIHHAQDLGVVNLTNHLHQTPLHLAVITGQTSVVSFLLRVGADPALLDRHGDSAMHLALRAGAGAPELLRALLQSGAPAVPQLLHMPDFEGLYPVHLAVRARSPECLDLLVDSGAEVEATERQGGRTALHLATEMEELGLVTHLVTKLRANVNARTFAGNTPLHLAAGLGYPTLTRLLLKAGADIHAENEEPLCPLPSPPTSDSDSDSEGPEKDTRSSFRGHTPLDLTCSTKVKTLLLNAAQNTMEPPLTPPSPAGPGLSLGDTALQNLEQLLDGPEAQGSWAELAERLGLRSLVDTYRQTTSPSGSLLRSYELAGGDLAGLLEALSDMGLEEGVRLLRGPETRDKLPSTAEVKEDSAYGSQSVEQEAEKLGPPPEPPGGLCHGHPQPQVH
Nuclear factor NF-kappa-B complex (Homo sapiens), sequence (Q04206 whole entry, looked up): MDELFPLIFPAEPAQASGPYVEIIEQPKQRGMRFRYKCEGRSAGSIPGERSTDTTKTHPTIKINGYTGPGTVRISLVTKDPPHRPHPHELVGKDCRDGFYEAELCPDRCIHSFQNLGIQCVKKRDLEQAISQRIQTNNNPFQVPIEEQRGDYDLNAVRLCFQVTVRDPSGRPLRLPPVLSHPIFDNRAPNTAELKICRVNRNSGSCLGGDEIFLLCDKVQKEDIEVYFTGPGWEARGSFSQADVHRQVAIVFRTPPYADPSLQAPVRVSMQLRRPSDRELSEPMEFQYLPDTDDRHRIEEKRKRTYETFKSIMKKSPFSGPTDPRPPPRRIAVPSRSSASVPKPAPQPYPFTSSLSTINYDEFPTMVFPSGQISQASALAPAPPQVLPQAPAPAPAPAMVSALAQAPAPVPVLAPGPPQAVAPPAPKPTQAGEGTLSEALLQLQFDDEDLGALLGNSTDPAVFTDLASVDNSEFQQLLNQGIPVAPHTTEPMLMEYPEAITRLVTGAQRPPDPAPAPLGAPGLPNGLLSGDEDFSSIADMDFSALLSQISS

## CC(C)S(=O)(=O)c1ccc2nccc(Nc3ccc4scnc4c3)c2c1
3T3SA [1]
  Activity: Toxic
3T3SA [2]
  Activity: Non-Toxic
L929
  inhibition: Active
3T3SA [3]
  Activity: Non-Toxic
[4]
  Activity: Active
3T3SA [5]
  Activity: Toxic
3T3SA [6]
  Activity: Non-Toxic
